# Assay results published in patent US20210059997A1, “PROPHYLACTIC AGENT AND/OR THERAPEUTIC AGENT FOR CATARACT, MEDICINAL COMPOSITION FOR PREVENTING AND/OR TREATING CATARACT, USE OF PPAR ACTIVATOR FOR PRODUCING SAME, AND EYEDROPS” (UNIVERSITY OF FUKUI, priority 2017, published 2021).
# Legend:
# Parameters in all cases: species or system SD rat
# [1] = system: isolated crystalline lenses; assay: Quantitative ex vivo study: ex-vivo diabetic cataract models using galactose-containing media, percentage of opacity by image analysis; settings: for Percentage of opacity of crystalline lens, Day 6: Day 6 = 3 days after restart of culture with 30 mM galactose and PPAR activator; for Percentage of opacity of crystalline lens, Day 3: Day 3 = 3 days in 30 mM galactose medium, before addition of PPAR activator; for effect on the percentage of opacity of the crystalline lens (conclusion from Table 1): ex vivo, low concentration
# Procedure: In Example 2, effects of each agent were tested with use of ex-vivo diabetic cataract models using galactose-containing media, in a similar manner to Example 1.
# (§1) The crystalline lenses were isolated from the right and left eyeballs of a 6-week-old SD rat (available from Sankyo Labo Service Corporation).
# (§2) The isolated crystalline lenses were cultured with use of a medium obtained by adding 30 mM of galactose to an M199 medium (available from SIGMA). After that, the crystalline lenses were cultured with use of a medium obtained by adding 30 mM of galactose and a PPAR activator to an M199 medium.
# (§3) Specific points in time at which observation was carried out are as follows. Note that the crystalline lenses were cultured with use of an incubator, the internal temperature of which was maintained at 37° C.
# First, 3 days after the start of the culture of the crystalline lenses using the medium obtained by adding 30 mM of galactose to an M199 medium (available from SIGMA), the crystalline lenses were removed from the medium and observed by microscopy under a microscope SZX12 (available from Olympas).
# After the microscopy, a PPAR activator was added to the medium, and the culture of the crystalline lenses was restarted. 3 days after the restart of the culture, the crystalline lenses were removed from the medium and observed again by microscopy under the microscope SZX12 (available from Olympas). Note that, for the purpose of clarifying the effects of the PPAR activator, control crystalline lenses were cultured again using a medium having no PPAR activators added thereto.
# The images obtained by the microscopy were imported into image processing software (Image J), and the number of pixels was analyzed. In this way, the total area of the crystalline lens and the area of the opaque area were calculated. The percentage of opacity of the crystalline lens was calculated using the following equation.
# Percentage of opacity of crystalline lens (%)=100×{(area of opaque area of crystalline lens)/(total area of crystalline lens)}
# [2] = system: isolated crystalline lenses; assay: Ex vivo study: ex-vivo diabetic cataract models using galactose-containing media (microscopy); settings: 800 μM PPAR activator added after 3 days in 30 mM galactose M199 medium; observed 3 days after restart of culture (Day 6)
# Procedure: In Example 1, effects of each agent were tested with use of ex-vivo diabetic cataract models using galactose-containing media.
# as §1
# as §2, with “and 800 μM of” for “and”, “activator (specifically, bezafibrate or fenofibrate)” for “activator”
# as §3
# First, 3 days after the start of the culture of the crystalline lenses using the medium obtained by adding 30 mM of galactose to an M199 medium (available from SIGMA), the crystalline lenses were removed from the medium and observed by microscopy under a SZX12 microscope (available from Olympas).
# After the microscopy, a PPAR activator was added to the medium, and the culture of the crystalline lenses was restarted. […]
# [3] = system: in-vivo diabetic cataract models raised on galactose feed; assay: In vivo study: in-vivo diabetic cataract models raised on galactose feed, instillation to the eye; settings: for Percentage of opacity of crystalline lens, Left eye: instillation to left eye four times a day for 1 week, feed containing 25% galactose; for effect on the area of the opaque area of the crystalline lens in vivo (conclusion from Table 2): left eye versus DMSO right eye
# Procedure: In Example 3, effects of each agent were tested with use of in-vivo diabetic cataract models raised on galactose feed.
# For the purpose of inducing cataract, a 3-week-old SD rat (available from Sankyo Labo Service Corporation) was raised for 1 week on feed containing 25% galactose. Concurrently, during the feeding period, ophthalmic agents were administered by instillation to both eyes of the rat every day (four times a day). The components of the ophthalmic agents were as follows: dimethyl sulfoxide (DMSO; administered as a control) for the right eye; and DMSO containing a PPAR activator for the left eye. On the last day of the feeding period, the crystalline lenses were isolated from the right and left eyes of the rat, and observed by microscopy.
# The type of PPAR activator administered to the left eye and its concentration in Example 3 are as follows.
# The total area of the crystalline lens, the area of the opaque area of the crystalline lens, and the percentage of opacity of the crystalline lens were calculated in the same manner as described in Example 2.
compound,measurement,setting,value
"CC(C)(Oc1ccc(CCNC(=O)c2ccc(Cl)cc2)cc1)C(=O)O [Bezafibrate, 2-[4-[2-[(4-chlorobenzoyl)amino]ethyl]phenoxy]-2-methylpropanoic acid]","Percentage of opacity of crystalline lens, Day 6",[1]; 200 μM,28.0%
same,"Percentage of opacity of crystalline lens, Day 3",[1]; lens later given 200 μM,27.1%
same,effect on opacity of the cortex of the crystalline lens (microscopy),[2],have the effect of therapeutic treatment of cataract after its development
"CC(C)(Oc1ccc(C2CC2(Cl)Cl)cc1)C(=O)O (stereo not drawn) [Ciprofibrate, 2-[4-(2,2-dichlorocyclopropyl)phenoxy]-2-methylpropanoic acid]","Percentage of opacity of crystalline lens, Day 6",[1]; 25 μM,15.7%
same,"Percentage of opacity of crystalline lens, Day 6",[1]; 100 μM,2.0%
same,effect on the percentage of opacity of the crystalline lens (conclusion from Table 1),[1],have the effect of reducing the percentage of opacity of the crystalline lens even when used at low concentration
same,"Percentage of opacity of crystalline lens, Day 3",[1]; lens later given 25 μM,17.5%
same,"Percentage of opacity of crystalline lens, Day 3",[1]; lens later given 100 μM,16.7%
same,"Percentage of opacity of crystalline lens, Left eye",[3]; 200 mM in DMSO,30.2%
same,effect on the area of the opaque area of the crystalline lens in vivo (conclusion from Table 2),[3]; 200 mM in DMSO,have the effect of reducing the area of the opaque area of the crystalline lens in vivo
"CCOC(=O)C(C)(C)Oc1ccc(Cl)cc1 [Clofibrate, ethyl 2-(4-chlorophenoxy)-2-methylpropanoate]","Percentage of opacity of crystalline lens, Day 6",[1]; 25 μM,27.3%
same,"Percentage of opacity of crystalline lens, Day 6",[1]; 100 μM,5.7%
same,"Percentage of opacity of crystalline lens, Day 3",[1]; lens later given 25 μM,9.7%
same,"Percentage of opacity of crystalline lens, Day 3",[1]; lens later given 100 μM,7.6%
"CC(C)(Oc1ccc(Cl)cc1)C(=O)OCCOC(=O)c1cccnc1 [Etofibrate, 2-[2-(4-chlorophenoxy)-2-methylpropanoyl]oxyethyl pyridine-3-carboxylate]","Percentage of opacity of crystalline lens, Day 6",[1]; 25 μM,25.2%
same,"Percentage of opacity of crystalline lens, Day 6",[1]; 100 μM,3.2%
same,"Percentage of opacity of crystalline lens, Day 3",[1]; lens later given 25 μM,16.8%
same,"Percentage of opacity of crystalline lens, Day 3",[1]; lens later given 100 μM,11.4%
same,"Percentage of opacity of crystalline lens, Left eye",[3]; 140 mM in DMSO,42.8%
"CC(C)OC(=O)C(C)(C)Oc1ccc(C(=O)c2ccc(Cl)cc2)cc1 [Fenofibrate, propan-2-yl 2-[4-(4-chlorobenzoyl)phenoxy]-2-methylpropanoate]",effect on opacity of the cortex of the crystalline lens (microscopy),[2],have the effect of therapeutic treatment of cataract after its development
"Cc1ccc(C)c(OCCCC(C)(C)C(=O)O)c1 [Gemfibrozil, 5-(2,5-dimethylphenoxy)-2,2-dimethylpentanoicacid]","Percentage of opacity of crystalline lens, Day 6",[1]; 0.8 μM,10.3%
same,"Percentage of opacity of crystalline lens, Day 6",[1]; 25 μM,8.2%
same,effect on the percentage of opacity of the crystalline lens (conclusion from Table 1),[1],have the effect of reducing the percentage of opacity of the crystalline lens even when used at low concentration
same,"Percentage of opacity of crystalline lens, Day 3",[1]; lens later given 0.8 μM,15.4%
same,"Percentage of opacity of crystalline lens, Day 3",[1]; lens later given 25 μM,13.8%
same,"Percentage of opacity of crystalline lens, Left eye",[3]; 200 mM in DMSO,40.4%
same,effect on the area of the opaque area of the crystalline lens in vivo (conclusion from Table 2),[3]; 200 mM in DMSO,have the effect of reducing the area of the opaque area of the crystalline lens in vivo
"CCc1ccc(CCOc2ccc(CC3SC(=O)NC3=O)cc2)nc1 (stereo not drawn) [Pioglitazone, 5-[[4-[2-(5-ethylpyridin-2-yl)ethoxy]phenyl]methyl]-1,3-thiazolidine-2,4-dione]","Percentage of opacity of crystalline lens, Left eye",[3]; 200 mM in DMSO,44.2%
same,effect on the area of the opaque area of the crystalline lens in vivo (conclusion from Table 2),[3]; 200 mM in DMSO,did not show the effect of reducing the area of the opaque area of the crystalline lens in vivo
"CN(CCOc1ccc(CC2SC(=O)NC2=O)cc1)c1ccccn1 (stereo not drawn) [Rosiglitazone, 5-[[4-[2-[methyl(pyridin-2-yl)amino]ethoxy]phenyl]methyl]-1,3-thiazolidine-2,4-dione]","Percentage of opacity of crystalline lens, Day 6",[1]; 20 μM,20.9%
same,"Percentage of opacity of crystalline lens, Day 6",[1]; 80 μM,2.2%
same,effect on the percentage of opacity of the crystalline lens (conclusion from Table 1),[1],have the effect of reducing the percentage of opacity of the crystalline lens even when used at low concentration
same,"Percentage of opacity of crystalline lens, Day 3",[1]; lens later given 20 μM,22.8%
same,"Percentage of opacity of crystalline lens, Day 3",[1]; lens later given 80 μM,15.6%
same,"Percentage of opacity of crystalline lens, Left eye",[3]; 200 mM in DMSO,30.6%
same,effect on the area of the opaque area of the crystalline lens in vivo (conclusion from Table 2),[3]; 200 mM in DMSO,have the effect of reducing the area of the opaque area of the crystalline lens in vivo
